Test results published in patent US20130254944A1, “Herbicide Tolerant Soybeans and Methods of Use” (PIONEER HI BRED INTERNATIONAL INC, priority 2012, published 2013).

Columns and labels:
Format in all cases: in vivo
[1] = tested on: soybean having the Als2 mutation; assay: Greenhouse postemergence test of ALS-inhibiting herbicides, soybean with Als2 mutation; conditions: for phytotoxic response (in words), Als2: rates 0.5x to 8x the label rate; for Avg response (% phytotoxicity), Trait Als2: Table 2
Protocol: (§1) Soybean lines having wild type als1 & 2 genes, the Als1 mutation, the Als2 mutation, or both the Als1 and Als2 mutations were evaluated for their response to various herbicides. Two seeds from each line were planted into 4-inch pots containing Redi-Earth potting mix (Sun Gro Horticulture Canada Ltd. 52130 RR65, Seba Beach, Alberta TOE 2B0), with two replications planted for each treatment. Pots were placed in flats at 15 pots/flat, and the resulting plants were grown in a greenhouse environment supplemented with lighting (16 hr photoperiod) for the duration of the test. Selected herbicides representing the mode of action that inhibits the acetolactate synthase enzyme, also known as the acetohydroxyacid synthase enzyme, were applied postemergence to soybean when soybean plants were at the V2 growth stage, which is the stage at which the first two trifoliolate leaves were expanded.
(§2) Eleven active ingredients representing the five chemical families with herbicidal activity on the acetolactate synthase enzyme were tested. These herbicides can cause a phytotoxic response in wild type soybean plants. The five chemical families tested were sulfonylaminocarbonyltriazolinone (also known as triazolinone), imidazolinone, sulfonylurea, pyrimidinylthiobenzoate, and triazolopyrimidine. Application rates ranged from 0.5 times to eight times the currently labeled application rate for each active ingredient with spray application volume at 30 gallons/acre. The application rates tested were 0.5×, 1×, 2×, 4× and 8× the label rate for each herbicide. Herbicidal active ingredients were applied as formulated materials dispersed in water containing 0.25% nonionic surfactant (Trend® 90).
(§3) The test was evaluated by visually scoring plant phenotype 14 days after the herbicides were applied. Controls consisted of soybean plants of the same variety that received no herbicide treatments for each of all the varieties tested. Soybean response was recorded on a zero to 100 visual scale in which zero is no phytotoxic response and 100 is plant death fourteen days after the herbicides were applied. Soybean response (percent phytotoxicity) to postemergence applications of herbicides inhibiting the acetolactate synthase enzyme test results are shown in Table 1.
(§4) Results in Table 1 were evaluated using the isobole method for analyzing interactions. […] Here the biologically active agents that are being assessed for interaction (synergy) are gene mutations in soybean. The effectiveness of the genes in providing improved tolerance to ALS-inhibiting herbicides was assessed by applying increasing doses of herbicides to each soybean line with its mutation(s).
(§5) An isobole reduces a dose response surface in three dimensional space to a two dimensional plot by fixing a defined response level (e.g., 50% response). The isobole plot is a graph in the Cartesian plane with a straight line connecting the isoeffective rates of the individual components of the combination. This straight line represents expected responses for zero interactive combinations. The isoeffective rate used to create the isobole is often the EC50, the rate estimated to elicit 50% response, but other ECx values can be used. Since the isobole method is based on the potency of the components of the combination, an experimental design testing a range of rates expected to elicit the full range of responses (e.g., 0 to maximum response) is best. (Ferry et al. (2005) 2005 Conference on Applied Statistics in Agriculture Proceedings pp 33-50, Manhattan, Kans., Kansas State Univ.; Green and Streibig (1993) Herbicide Mixtures, pp 117-134 in Herbicide Bioassays, Streibig and Hudsk Eds, CRC, Boca Raton, Fla.).
(§6) Loglogistic dose response curves were fit to percent phytotoxicity response data using log 10 of dose (McCullagh and Nelder (1989) Generalized Linear Models, Chapman & Hall, London). Curves were fit using the logit link with normal errors. […]

[2] = tested on: wild type soybean; assay: Greenhouse postemergence test of ALS-inhibiting herbicides, wild type soybean
Protocol: as §1, §2, §3

[3] = tested on: soybean having the Als1 mutation; assay: Greenhouse postemergence test of ALS-inhibiting herbicides, soybean with Als1 mutation; conditions: for phytotoxic response (in words), Als1: rates 0.5x to 8x the label rate; for Avg response (% phytotoxicity), Trait Als1: Table 2
Protocol: as §1, §2, §3, §4, §5, §6

[4] = tested on: soybean having both the Als1 and Als2 mutations; assay: Greenhouse postemergence test of ALS-inhibiting herbicides and isobole analysis, soybean with Als1 and Als2 mutations; conditions: for phytotoxic response (in words), Als1+Als2: rates 0.5x to 8x the label rate; for Avg response (% phytotoxicity), Trait Als1 + Als2: Table 2
Protocol: as §1, §2, §3, §4, §5, §6

[5] = 8.75 g ai/ha postemergence at V2, scored 14 days after application
[6] = 17.5 g ai/ha postemergence at V2, scored 14 days after application
[7] = 35 g ai/ha postemergence at V2, scored 14 days after application
[8] = 70 g ai/ha postemergence at V2, scored 14 days after application
[9] = 140 g ai/ha postemergence at V2, scored 14 days after application
[10] = 280 g ai/ha postemergence at V2, scored 14 days after application
[11] = rate of herbicide estimated to cause 10% phytotoxic response, loglogistic fit
[12] = rate of herbicide estimated to cause 50% phytotoxic response, loglogistic fit

SMILES: COc1cc(Cl)nc(NC(=O)NS(=O)(=O)c2ccccc2C(=O)O)n1 [Chlorimuron]
- Soybean response (percent phytotoxicity), Als2 [1, 5]: 0%
- Soybean response (percent phytotoxicity), Als2 [1, 6]: 0%
- Soybean response (percent phytotoxicity), Als2 [1, 7]: 0%
- Soybean response (percent phytotoxicity), Als2 [1, 8]: 0%
- Soybean response (percent phytotoxicity), Als2 [1, 9]: 0%
- phytotoxic response (in words), Als2 [1]: did not cause any phytotoxic response
- Soybean response (percent phytotoxicity), Wild type [2, 5]: 0%
- Soybean response (percent phytotoxicity), Wild type [2, 6]: 5%
- Soybean response (percent phytotoxicity), Wild type [2, 7]: 20%
- Soybean response (percent phytotoxicity), Wild type [2, 8]: 35%
- Soybean response (percent phytotoxicity), Wild type [2, 9]: 45%
- Soybean response (percent phytotoxicity), Als1 [3, 5]: 0%
- Soybean response (percent phytotoxicity), Als1 [3, 6]: 0%
- Soybean response (percent phytotoxicity), Als1 [3, 7]: 0%
- Soybean response (percent phytotoxicity), Als1 [3, 8]: 0%
- Soybean response (percent phytotoxicity), Als1 [3, 9]: 0%
- phytotoxic response (in words), Als1 [3]: did not cause any phytotoxic response
- Soybean response (percent phytotoxicity), Als1 + Als2 [4, 5]: 0%
- Soybean response (percent phytotoxicity), Als1 + Als2 [4, 6]: 0%
- Soybean response (percent phytotoxicity), Als1 + Als2 [4, 7]: 0%
- Soybean response (percent phytotoxicity), Als1 + Als2 [4, 8]: 0%
- Soybean response (percent phytotoxicity), Als1 + Als2 [4, 9]: 0%
- phytotoxic response (in words), Als1+Als2 [4]: did not cause any phytotoxic response

SMILES: CCOc1nc(F)cc2nc(S(=O)(=O)Nc3c(Cl)cccc3C(=O)OC)nn12 [Cloransulam methyl]
- Soybean response (percent phytotoxicity), Als2 [1, 5]: 0%
- Soybean response (percent phytotoxicity), Als2 [1, 6]: 0%
- Soybean response (percent phytotoxicity), Als2 [1, 7]: 0%
- Soybean response (percent phytotoxicity), Als2 [1, 8]: 0%
- Soybean response (percent phytotoxicity), Als2 [1, 9]: 0%
- phytotoxic response (in words), Als2 [1]: did not cause any phytotoxic response
- Soybean response (percent phytotoxicity), Wild type [2, 5]: 0%
- Soybean response (percent phytotoxicity), Wild type [2, 6]: 0%
- Soybean response (percent phytotoxicity), Wild type [2, 7]: 0%
- Soybean response (percent phytotoxicity), Wild type [2, 8]: 5%
- Soybean response (percent phytotoxicity), Wild type [2, 9]: 15%
- Soybean response (percent phytotoxicity), Als1 [3, 5]: 0%
- Soybean response (percent phytotoxicity), Als1 [3, 6]: 0%
- Soybean response (percent phytotoxicity), Als1 [3, 7]: 0%
- Soybean response (percent phytotoxicity), Als1 [3, 8]: 0%
- Soybean response (percent phytotoxicity), Als1 [3, 9]: 0%
- phytotoxic response (in words), Als1 [3]: did not cause any phytotoxic response
- Soybean response (percent phytotoxicity), Als1 + Als2 [4, 5]: 0%
- Soybean response (percent phytotoxicity), Als1 + Als2 [4, 6]: 0%
- Soybean response (percent phytotoxicity), Als1 + Als2 [4, 7]: 0%
- Soybean response (percent phytotoxicity), Als1 + Als2 [4, 8]: 0%
- Soybean response (percent phytotoxicity), Als1 + Als2 [4, 9]: 0%
- phytotoxic response (in words), Als1+Als2 [4]: did not cause any phytotoxic response

SMILES: COc1nn(C(=O)NS(=O)(=O)c2ccccc2OC(F)(F)F)c(=O)n1C [Flucarbazone]
- Soybean response (percent phytotoxicity), Als2 [1, 6]: 5%
- Avg response (% phytotoxicity), Trait Als2 ([1]; 17.5 g ai/ha): 5%
- Soybean response (percent phytotoxicity), Als2 [1, 7]: 15%
- Avg response (% phytotoxicity), Trait Als2 ([1]; 35 g ai/ha): 30%
- Soybean response (percent phytotoxicity), Als2 [1, 8]: 20%
- Avg response (% phytotoxicity), Trait Als2 ([1]; 70 g ai/ha): 50%
- Soybean response (percent phytotoxicity), Als2 [1, 9]: 25%
- Avg response (% phytotoxicity), Trait Als2 ([1]; 140 g ai/ha): 55%
- Soybean response (percent phytotoxicity), Als2 [1, 10]: 30%
- Avg response (% phytotoxicity), Trait Als2 ([1]; 280 g ai/ha): 60%
- EC10, Als2 [1, 11]: 8.14 g ai/ha
- Soybean response (percent phytotoxicity), Wild type [2, 6]: 60%
- Soybean response (percent phytotoxicity), Wild type [2, 7]: 80%
- Soybean response (percent phytotoxicity), Wild type [2, 8]: 90%
- Soybean response (percent phytotoxicity), Wild type [2, 9]: 98%
- Soybean response (percent phytotoxicity), Wild type [2, 10]: 98%
- Soybean response (percent phytotoxicity), Als1 [3, 6]: 0%
- Avg response (% phytotoxicity), Trait Als1 ([3]; 17.5 g ai/ha): 0%
- Soybean response (percent phytotoxicity), Als1 [3, 7]: 0%
- Avg response (% phytotoxicity), Trait Als1 ([3]; 35 g ai/ha): 0%
- Soybean response (percent phytotoxicity), Als1 [3, 8]: 5%
- Avg response (% phytotoxicity), Trait Als1 ([3]; 70 g ai/ha): 5%
- Soybean response (percent phytotoxicity), Als1 [3, 9]: 10%
- Avg response (% phytotoxicity), Trait Als1 ([3]; 140 g ai/ha): 10%
- Soybean response (percent phytotoxicity), Als1 [3, 10]: 10%
- Avg response (% phytotoxicity), Trait Als1 ([3]; 280 g ai/ha): 10%
- EC10, Als1 [3, 11]: 230.45 g ai/ha
- Soybean response (percent phytotoxicity), Als1 + Als2 [4, 6]: 0%
- Avg response (% phytotoxicity), Trait Als1 + Als2 ([4]; 17.5 g ai/ha): 0%
- Soybean response (percent phytotoxicity), Als1 + Als2 [4, 7]: 0%
- Avg response (% phytotoxicity), Trait Als1 + Als2 ([4]; 35 g ai/ha): 0%
- Soybean response (percent phytotoxicity), Als1 + Als2 [4, 8]: 0%
- Avg response (% phytotoxicity), Trait Als1 + Als2 ([4]; 70 g ai/ha): 0%
- Soybean response (percent phytotoxicity), Als1 + Als2 [4, 9]: 0%
- Avg response (% phytotoxicity), Trait Als1 + Als2 ([4]; 140 g ai/ha): 0%
- Soybean response (percent phytotoxicity), Als1 + Als2 [4, 10]: 0%
- Avg response (% phytotoxicity), Trait Als1 + Als2 ([4]; 280 g ai/ha): 0%
- EC10, Als1 + Als2 [4, 11]: >280 g ai/ha

SMILES: CC(C)C1(C)N=C(c2ncccc2C(=O)O)NC1=O (centres unmarked) [Imazapyr]
- Soybean response (percent phytotoxicity), Als2 [1, 5]: 5%
- Avg response (% phytotoxicity), Trait Als2 ([1]; 8.75 g ai/ha): 5%
- Soybean response (percent phytotoxicity), Als2 [1, 6]: 20%
- Avg response (% phytotoxicity), Trait Als2 ([1]; 17.5 g ai/ha): 20%
- Soybean response (percent phytotoxicity), Als2 [1, 7]: 25%
- Avg response (% phytotoxicity), Trait Als2 ([1]; 35 g ai/ha): 25%
- Soybean response (percent phytotoxicity), Als2 [1, 8]: 50%
- Avg response (% phytotoxicity), Trait Als2 ([1]; 70 g ai/ha): 50%
- Soybean response (percent phytotoxicity), Als2 [1, 9]: 55%
- Avg response (% phytotoxicity), Trait Als2 ([1]; 140 g ai/ha): 55%
- EC50, Als2 [1, 12]: 93.91 g ai/ha
- Soybean response (percent phytotoxicity), Wild type [2, 5]: 10%
- Soybean response (percent phytotoxicity), Wild type [2, 6]: 40%
- Soybean response (percent phytotoxicity), Wild type [2, 7]: 75%
- Soybean response (percent phytotoxicity), Wild type [2, 8]: 90%
- Soybean response (percent phytotoxicity), Wild type [2, 9]: 98%
- Soybean response (percent phytotoxicity), Als1 [3, 5]: 0%
- Avg response (% phytotoxicity), Trait Als1 ([3]; 8.75 g ai/ha): 0%
- Soybean response (percent phytotoxicity), Als1 [3, 6]: 10%
- Avg response (% phytotoxicity), Trait Als1 ([3]; 17.5 g ai/ha): 10%
- Soybean response (percent phytotoxicity), Als1 [3, 7]: 45%
- Avg response (% phytotoxicity), Trait Als1 ([3]; 35 g ai/ha): 45%
- Soybean response (percent phytotoxicity), Als1 [3, 8]: 80%
- Avg response (% phytotoxicity), Trait Als1 ([3]; 70 g ai/ha): 80%
- Soybean response (percent phytotoxicity), Als1 [3, 9]: 98%
- Avg response (% phytotoxicity), Trait Als1 ([3]; 140 g ai/ha): 98%
- EC50, Als1 [3, 12]: 38.86 g ai/ha
- Soybean response (percent phytotoxicity), Als1 + Als2 [4, 5]: 0%
- Avg response (% phytotoxicity), Trait Als1 + Als2 ([4]; 8.75 g ai/ha): 0%
- Soybean response (percent phytotoxicity), Als1 + Als2 [4, 6]: 0%
- Avg response (% phytotoxicity), Trait Als1 + Als2 ([4]; 17.5 g ai/ha): 0%
- Soybean response (percent phytotoxicity), Als1 + Als2 [4, 7]: 0%
- Avg response (% phytotoxicity), Trait Als1 + Als2 ([4]; 35 g ai/ha): 0%
- Soybean response (percent phytotoxicity), Als1 + Als2 [4, 8]: 40%
- Avg response (% phytotoxicity), Trait Als1 + Als2 ([4]; 70 g ai/ha): 40%
- Soybean response (percent phytotoxicity), Als1 + Als2 [4, 9]: 55%
- Avg response (% phytotoxicity), Trait Als1 + Als2 ([4]; 140 g ai/ha): 55%
- EC50, Als1 + Als2 [4, 12]: 112.81 g ai/ha
